Laboratory results published in ChEMBL document CHEMBL1128496, “Anti-AIDS (acquired immune deficiency syndrome) agents. 17. New brominated hexahydroxybiphenyl derivatives as potent anti-HIV agents” (J Med Chem, 1995).
Values after ≈ are worked out from the molar mass of the structure shown. Values joined by “and” are separate entries in the source; they are usually repeats but may differ in a detail not shown here. Equal values may be shown once.

Experiments:
[1] = Anti-HIV activity was evaluated by measuring the growth inhibition of acutely infected H9 lymphocytes as EC50.; assay type: functional; details: Human immunodeficiency virus 1
[2] = Anti-HIV activity was evaluated by measuring the growth inhibition of acutely infected H9 lymphocytes as IC50.; assay type: functional; details: Human immunodeficiency virus 1
[3] = Anti-HIV activity evaluated by measuring the growth inhibition of acutely infected H9 lymphocytes as therapeutic index.; design: species or system Human immunodeficiency virus 1; details: for selectivity ratio: human immunodeficiency virus 1, H9 lymphocytes acutely infected with HIV-1, read-out: TI; for TI: Human immunodeficiency virus 1
[4] = tested on: H9; assay: Anti-HIV activity of compound was evaluated by measuring the growth inhibition of acutely infected H9 lymphocytes as IC50.; assay type: functional, Homo sapiens
[5] = Effect against HIV-1 expression in a chronically infected human T cell line ACH-2; assay type: functional, Human immunodeficiency virus 1
[6] = Effect against HIV-1 expression in a chronically infected human T cell line ACH-2i n the presence of PMA(phorbol 12-myristate 13-acetate); assay type: functional, Human immunodeficiency virus 1
[7] = tested on: H9; assay: Anti-HIV activity of compound was evaluated by measuring the growth inhibition of acutely infected H9 lymphocytes.; assay type: functional, cell-based; details: Homo sapiens
[8] = Effect against HIV-1 chronically infected promonocytic cell line U1; assay type: functional, Human immunodeficiency virus 1
[9] = Effect against HIV-1 chronically infected promonocytic cell line U1 in the presence of PMA(phorbol 12-myristate 13-acetate); assay type: functional, Human immunodeficiency virus 1
[10] = Effect against HIV-1 expression in a chronically infected human T cell line ACH-2 in the presence of PMA(phorbol 12-myristate 13-acetate); assay type: functional, Human immunodeficiency virus 1
[11] = tested on: ACH-2 cell line; assay: Effect against HIV-1 chronically infected […] cell line ACH-2 cells; assay type: functional, Homo sapiens
[12] = tested on: ACH-2 cell line; assay: Effect against HIV-1 chronically infected […] cell line ACH-2 cells in the presence of PMA(phorbol 12-myristate 13-acetate); assay type: functional, Homo sapiens

SMILES	EC50 [1] [µg/mL]	IC50 [2] [µg/mL]	selectivity ratio [3]	also measured
COc1c(Br)c(C(=O)O)c(-c2c3c(c(OC)c(Br)c2C(=O)NCCN2CCNCC2)OCO3)c2c1OCO2	30 (≈ 45.5 µM)	> 100	> 3.3	–
COc1c(Br)c(C(=O)[O-])c(-c2c3c(c(OC)c(Br)c2C(=O)[O-])OCO3)c2c1OCO2.[Na+].[Na+]	> 100	> 100	1	–
COc1c(Br)c(C(=O)O)c(-c2c3c(c(OC)c(Br)c2C(=O)O)OCO3)c2c1OCO2	> 100	> 100	–	TI [3]: 1
COc1c2c(c3c(c1Br)c(=O)oc(=O)c1c(Br)c(OC)c4c(c13)OCO4)OCO2	–	–	–	C50 [4]: >100 µg/mL
COc1c(Br)c(C(=O)O)c(-c2c3c(c(OC)c(Br)c2C(=O)OCC[N+](C)(C)C)OCO3)c2c1OCO2.[Cl-]	> 100	> 100	1	–
CCOC(=O)c1c(Br)c(OC)c2c(c1-c1c3c(c(OC)c(Br)c1C(=O)[O-])OCO3)OCO2.[Na+]	–	> 100	–	–
COC(=O)c1c(Br)c(OC)c2c(c1-c1c3c(c(OC)c(Br)c1C(=O)OC)OCO3)OCO2	–	–	> 480	p24 [5]: 169 pg/mL and 141 pg/mL and 135 pg/mL and 142 pg/mL and 122 pg/mL and 123 pg/mL; p24 [6]: 31590 pg/mL and 35635 pg/mL and 30426 pg/mL and 32768 pg/mL and 29173 pg/mL and 27699 pg/mL; EC50 [7]: 0.23 µg/mL (≈ 0.399 µM); p24 [8]: 15 pg/mL and 16 pg/mL and 14 pg/mL and 13 pg/mL and 17 pg/mL; p24 [9]: 10131 pg/mL and 10598 pg/mL and 11482 pg/mL and 9850 pg/mL and 8320 pg/mL and 7590 pg/mL
COc1c(OC(=O)c2ccccc2)c(OC(=O)c2ccccc2)c(Br)c(CO)c1-c1c(CO)c(Br)c(OC(=O)c2ccccc2)c(OC(=O)c2ccccc2)c1OC	> 100	> 100	1	–
COC(=O)c1cc(OC(=O)c2ccccc2)c(OC(=O)c2ccccc2)c(OC)c1-c1c(OC)c(OC(=O)c2ccccc2)c(OC(=O)c2ccccc2)c(Br)c1C(=O)OC	> 100	> 100	1	–
CCCCCCOC(=O)c1c(Br)c(OC)c2c(c1-c1c3c(c(OC)c(Br)c1C(=O)OCCCCCC)OCO3)OCO2	2 (≈ 2.79 µM)	> 100	> 50	–
COC(=O)c1cc(OC)c2c(c1-c1c3c(c(OC)c(Br)c1C(=O)OC)OCO3)OCO2	–	–	–	p24 [5]: 148 pg ml-1 [middle of 6 runs]; p24 [10]: 23373 pg/mL; p24 [6]: 46208 pg/mL and 28634 pg/mL and 24832 pg/mL and 26957 pg/mL and 27699 pg/mL; p24 [9]: 10746 pg/mL and 13376 pg/mL and 8774 pg/mL and 7616 pg/mL and 7200 pg/mL and 8314 pg/mL
COC(=O)c1c(Br)c(OC(=O)c2ccccc2)c(OC(=O)c2ccccc2)c(OC)c1-c1c(OC)c(OC(=O)c2ccccc2)c(OC(=O)c2ccccc2)c(Br)c1C(=O)OC	> 100	> 100	1	–
COc1c(Br)c(C(=O)O)c(-c2c3c(c(OC)c(Br)c2C(=O)O)OCO3)c2c1OCO2.OCCN1CCCC1.OCCN1CCCC1	17	> 20	–	TI [3]: < 1.2
CCOC(=O)c1c(Br)c(OC)c2c(c1-c1c3c(c(OC)c(Br)c1C(=O)O)OCO3)OCO2	60 (≈ 104 µM)	> 100	> 1.7	–
COc1c(OC(=O)c2ccccc2)c(OC(=O)c2ccccc2)cc(CO)c1-c1c(CO)c(Br)c(OC(=O)c2ccccc2)c(OC(=O)c2ccccc2)c1OC	100 (≈ 120 µM)	> 100	> 1	–
Br.COc1c(Br)c(C(=O)O)c(-c2c3c(c(OC)c(Br)c2C(=O)NCCN2CCCC2)OCO3)c2c1OCO2	> 100	> 100	1	–
COC(=O)c1cc(OC)c2c(c1-c1c(C(=O)OC)cc(OC)c3c1OCO3)OCO2 [BIFENDATE]	5 (≈ 12 µM)	> 100	> 20	–
Cc1cn([C@H]2C[C@H](N=[N+]=[N-])[C@@H](CO)O2)c(=O)[nH]c1=O [ZIDOVUDINE]	–	–	–	p24 [11]: 167 pg ml-1 [middle of 4 runs]; p24 [12]: 19814 pg/mL and 30758 pg/mL and 31808 pg/mL and 31360 pg/mL; p24 [8]: 22 pg/mL and 13 pg/mL and 12 pg/mL and 18 pg/mL; p24 [9]: 9338 pg/mL and 9299 pg/mL and 8218 pg/mL and 8070 pg/mL
